Source: patent US12486278B2, “MASP-2 inhibitors and methods of use” (Omeros Corporation, priority 2019, dated 2025)
Structures can show the parent of a compound that is named as a salt.

Target: T1, MASP-2 (CCP1-CCP2-SP) (Homo sapiens, UniProt O00187)
T1 construct: 15 μL of Enzyme MASP-2 (CCP1-CCP2-SP) in Assay Buffer
Experiment: Enzymatic Assay for MASP-2 (fluorogenic substrate)
Type: biochemical
Conditions: fluorogenic substrate based on C2 cleavage site; room temperature, 20 min; 20 mM HEPES pH 7.4, 140 mM NaCl, 0.1% Tween 20
Outline: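 Fluorogenic substrate built on the C2 cleavage site, in 20 mM HEPES pH 7.4, 140 mM NaCl, 0.1% Tween 20, run at room temperature for 20 min before an acetic acid stop. Fluorescence normalised to DMSO-only and no-enzyme controls; IC50 taken as equivalent to Ki, with tight- or slow-binding inhibitors treated separately.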

T1 sequence (O00187 445-686 limits assumed): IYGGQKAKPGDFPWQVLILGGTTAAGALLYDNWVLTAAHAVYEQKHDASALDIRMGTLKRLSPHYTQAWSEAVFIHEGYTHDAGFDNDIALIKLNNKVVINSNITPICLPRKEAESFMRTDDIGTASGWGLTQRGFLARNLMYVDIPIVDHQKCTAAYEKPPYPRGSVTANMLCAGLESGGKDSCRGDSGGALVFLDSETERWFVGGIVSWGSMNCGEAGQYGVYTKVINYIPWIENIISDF
T1 sequence (O00187 298-444 partner limits assumed): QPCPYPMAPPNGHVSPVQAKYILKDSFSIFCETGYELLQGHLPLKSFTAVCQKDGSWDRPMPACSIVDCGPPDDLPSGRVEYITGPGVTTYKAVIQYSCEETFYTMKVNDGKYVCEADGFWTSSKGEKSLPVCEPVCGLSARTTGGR

Row | Ki [nM] | Structure (SMILES)
1 | 500 to 2500 | C[C@H](NC(=O)[C@H]1C[C@@H](c2ccncc2)CN1)C(=O)NCc1ccc(C(=N)N)cc1 [Compound I-95, (2R,4S)—N—((S)-1-((4-carbamimidoylbenzyl)amino)-1-oxopropan-2-yl)-4-(pyridin-4-yl)pyrrolidine-2-carboxamide di-trifluoroacetate]
2 | < 500 | C[C@H](NC(=O)[C@H]1C[C@@H](c2ccccc2)CCN1CCC(=O)O)C(=O)NCc1ccc(C(=N)N)cc1 [Compound I-32, 3-((2R,4S)-2-(((S)-1-((4-Carbamimidoylbenzyl)Amino)-1-Oxopropan-2-Yl)Carbamoyl)-4-Phenylpiperidin-1-Yl)Propanoic Acid Di-Trifluoroacetate]
3 | < 500 | C[C@H](NC(=O)[C@H]1C[C@H](Cc2ccccc2)CN1)C(=O)NCc1cc2c(s1)CNC2 [Compound I-99, (2R,4S)-4-Benzyl-N—((S)-1-(((5,6-Dihydro-4H-Thieno[2,3-C]Pyrrol-2-Yl)Methyl)Amino)-1-Oxopropan-2-Yl)Pyrrolidine-2-Carboxamide Di-Trifluoroacetate Salt]
4 | < 500 | Cc1nc(N)ccc1CNC(=O)[C@H](C)NC(=O)[C@H]1C[C@H](Cc2cc(Br)c(Br)s2)CN1 [Compound I-17, (2R,4R)—N—((S)-1-(((6-Amino-2-Methylpyridin-3-Yl)Methyl)Amino)-1-Oxopropan-2-Yl)-4-((4,5-Dibromothiophen-2-Yl)Methyl)Pyrrolidine-2-Carboxamide Di-Trifluoroacetate]
5 | < 500 | Cc1nc(N)ccc1CNC(=O)[C@@H]1CCN1C(=O)[C@H]1C[C@H](Cc2ccc(-c3ccccc3)cc2)CN1 [Compound I-62, (S)-1-((2R,4S)-4-([1,1′-Biphenyl]-4-Ylmethyl)Pyrrolidine-2-Carbonyl)-N-((6-Amino-2-Methylpyridin-3-Yl)Methyl)Azetidine-2-Carboxamide Di-Trifluoroacetate]
6 | < 500 | Cc1cccc(C2CN[C@@H](C(=O)N[C@@H](C)C(=O)NCc3ccc(C(=N)N)cc3)C2)c1 (single isomer, unassigned) [Compound I-14, N-(1-((4-Carbamimidoylbenzyl)amino)-1-oxopropan-2-yl)-4-(m-tolyl)pyrrolidine-2-carboxamide]
7 | < 500 | C[C@H](NC(=O)[C@H]1C[C@H](Cc2cccc(C(=O)O)c2)CN1)C(=O)NCc1ccc(C(=N)N)cc1 [Compound I-55, 3-(((3S,5R)-5-(((S)-1-((4-Carbamimidoylbenzyl)Amino)-1-Oxopropan-2-Yl)Carbamoyl)Pyrrolidin-3-Yl)Methyl)Benzoic Acid Di-Trifluoroacetate]
8 | < 500 | C[C@H](NC(=O)[C@H]1C[C@H](c2ccccc2)CN1CC(=O)O)C(=O)NCc1ccc(C(=N)N)cc1 [Compound I-35, 2-((2R,4R)-2-(((S)-1-((4-Carbamimidoylbenzyl)Amino)-1-Oxopropan-2-Yl)Carbamoyl)-4-Phenylpyrrolidin-1-Yl)Acetic Acid Di-Trifluoroacetate]
9 | < 500 | C[C@H](NC(=O)[C@H]1C[C@@H](c2ccc(N3CCOCC3)cc2)CCN1)C(=O)NCc1ccc(C(=N)N)cc1 [Compound I-76, (2R,4S)—N—((S)-1-((4-Carbamimidoylbenzyl)Amino)-1-Oxopropan-2-Yl)-4-(4-Morpholinophenyl)Piperidine-2-Carboxamide Dihydrochloride]
10 | < 500 | C[C@H](NC(=O)[C@H]1C[C@@H](c2cccc(C(N)=O)c2)CN1)C(=O)NCc1ccc(C(=N)N)cc1 [Compound I-15]
11 | < 500 | Cc1nc(N)ccc1CNC(=O)[C@H](C)NC(=O)[C@H]1C[C@H](Cc2cc(Cl)c(Cl)s2)CN1 [Compound I-18, (2R,4R)—N—((S)-1-(((6-Amino-2-Methylpyridin-3-Yl)Methyl)Amino)-1-Oxopropan-2-Yl)-4-((4,5-Dichlorothiophen-2-Yl)Methyl)Pyrrolidine-2-Carboxamide Di-Trifluoroacetate]
12 | < 500 | C[C@H](NC(=O)[C@H]1C[C@@H](c2ccc(-c3ccccc3)cc2)CCN1)C(=O)NCc1cc(Cl)ccc1-n1cnnn1 [Compound I-102, (2R,4S)-4-([1,1′-Biphenyl]-4-yl)-N—((S)-1-((5-chloro-2-(1H-tetrazol-1-yl)benzyl)amino)-1-oxopropan-2-yl)piperidine-2-carboxamide trifluoroacetate]
13 | < 500 | Cc1nc(N)ccc1CNC(=O)[C@H](C)NC(=O)[C@H]1C[C@H](Cc2ccc(C(=O)O)cc2)CN1 [Compound I-51, 4-(((3S,5R)-5-(((S)-1-(((6-Amino-2-Methylpyridin-3-Yl)Methyl)Amino)-1-Oxopropan-2-Yl)Carbamoyl)Pyrrolidin-3-Yl)Methyl)Benzoic Acid Di-Trifluoroacetate]
14 | < 500 | C[C@H](NC(=O)[C@H]1C[C@@H](c2ccc(-c3cccnc3)cc2)CCN1)C(=O)NCc1cc(Cl)ccc1-n1cnnn1 [Compound I-101, (2R,4S)—N—((S)-1-((5-chloro-2-(1H-tetrazol-1-yl)benzyl)amino)-1-oxopropan-2-yl)-4-(4-(pyridin-3-yl)phenyl)piperidine-2-carboxamide trifluoroacetate]
15 | < 500 | C[C@H](NC(=O)[C@H]1C=C(C2(c3ccccc3)CC2)CN1)C(=O)NCc1ccc(C(=N)N)cc1 [Compound I-52, (R)—N—((S)-1-((4-Carbamimidoylbenzyl)Amino)-1-Oxopropan-2-Yl)-4-(1-Phenylcyclopropyl)-2,5-Dihydro-1H-Pyrrole-2-Carboxamide Di-Trifluoroacetate]
16 | < 500 | Cc1nc(N)ccc1CNC(=O)[C@H](C)NC(=O)[C@H]1C[C@H](Cc2ccc(F)c(Cl)c2)CN1CC(=O)O [Compound I-33, 2-((2R,4S)-2-(((S)-1-(((6-Amino-2-Methylpyridin-3-Yl)Methyl)Amino)-1-Oxopropan-2-Yl)Carbamoyl)-4-(3-Chloro-4-Fluorobenzyl)Pyrrolidin-1-Yl)Acetic Acid Di-Trifluoroacetate]
17 | < 500 | Cc1cccc([C@@H]2CN[C@@H](C(=O)N[C@@H](C)C(=O)NCc3ccc(C(=N)N)cc3)C2)c1 [Compound I-13, (2R,4R)—N—((S)-1-((4-Carbamimidoylbenzyl)Amino)-1-Oxopropan-2-Yl)-4-(M-Tolyl)Pyrrolidine-2-Carboxamide]
18 | < 500 | C[C@H](NC(=O)[C@H]1C[C@@H](c2ccccc2)CCN1CCNS(C)(=O)=O)C(=O)NCc1cc2cnccc2[nH]1 [Compound I-42, (2R,4S)—N—((S)-1-(((1H-Pyrrolo[3,2-C]Pyridin-2-Yl)Methyl)Amino)-1-Oxopropan-2-Yl)-1-(2-(Methylsulfonamido)Ethyl)-4-Phenylpiperidine-2-Carboxamide Di-Trifluoroacetate]
19 | < 500 | C[C@H](NC(=O)[C@H]1C[C@@H](c2ccc(F)cc2)CCN1)C(=O)NCc1ccc(C(=N)N)cc1 [Compound I-67]
20 | < 500 | Cc1nc(N)ccc1CNC(=O)[C@H](CO)NC(=O)[C@H]1C[C@H](Cc2ccccc2)CN1 [Compound I-57, (2R,4S)—N—((S)-1-(((6-Amino-2-Methylpyridin-3-Yl)Methyl)Amino)-3-Hydroxy-1-Oxopropan-2-Yl)-4-Benzylpyrrolidine-2-Carboxamide Dihydrochloride]
21 | < 500 | C[C@H](NC(=O)[C@H]1C[C@H](Cc2cc(Cl)c(Cl)s2)CN1)C(=O)NCc1cc2cnccc2[nH]1 [Compound I-22, (2R,4R)—N—((S)-1-(((1H-Pyrrolo[3,2-C]Pyridin-2-Yl)Methyl)Amino)-1-Oxopropan-2-Yl)-4-((4,5-Dichlorothiophen-2-Yl)Methyl)Pyrrolidine-2-Carboxamide Di-Trifluoroacetate]
